Reference: US20120196766A1, “Therapeutic Use of Farnesyltransferase Inhibitors and Methods of Monitoring the Efficacy Thereof” (priority 2004, published 2012)

Legend:
human PBMC = assay: LPS-induced cytokine production in human PBMC; format: cell-based
Procedure: Human IL-6, IL18, IL1β, MCP-1, MMP-9, and mouse IL-6, IL18, TNFα, MCP-1 and IL-1β were measured with ELISA kits (R&D Systems) according to the manufacturer's instructions.
Heparinized human blood (25 ml) from a healthy donor was overlaid into a 50 ml conical tubes containing 20 ml Ficoll-Paque, and centrifuged for 20 min at 2000 rpm at room temperature and then allowed to stop without using the brake on the centrifuge. The upper layer was aspirated, leaving the mononuclear cell layer undisturbed at the interface. Cells were carefully transferred the to a new […] conical tube. The conical tube was filled with PBS, mixed and centrifuged at 1500 rpm for 15 minutes at room temperature. The supernatant was carefully and completely removed. The cell pellet was resupended in 50 ml of PBS and centrifuged at 1500 rpm for 5 minutes. This wash step was repeated once more. The cells were counted and resuspended cells at 1.7×10^6/ml in low-endotoxin RPMI1640/10% FBS.
Human PBMC (180 μl at 1.7×10^6/ml) were pipetted into each well of a 96-well plate. […] Cells were incubated at 37° C., under 5% CO2 for 1 hour, then 10 μl LPS (diluted in medium) were added per well to reach a final concentration of 10 ng/ml. Cells were cultured at 37° C., under 5% CO2. Supernatants were collected at 16 hours, 24 hours and 40 hours of LPS treatment, and IL-6 secretion was quantified.

[1] = cited from earlier work
[2] = test system: collagen-induced arthritis; conditions: WO 00/01386; cited from earlier work
cachexia = conditions: US 2004/0157773, WO 02/085364; cited from earlier work
THP-1 cells = assay: Reverse transcriptase and real-time quantitative PCR of LPS-induced transcription in THP-1 cells; format: cell-based, Human
Procedure: THP-1 cells were cultured in RPMI1640 medium, supplemented with 10% FBS/100 units/ml Penicillin/10 μg/ml Streptomycin at 37° C., under 5% CO2. […] For the untreated control group (no LPS, no compound) and LPS alone group, equivalent volumes of DMSO were added to the medium. Cells were cultured at 37° C. and pellets were collected at 0 hr, 1 hr, 3 hr, 6 hr, 12 hr & 24 hr. Cell pellets were stored at −80° C. if RNA isolation was not conducted immediately. For experiments to study cytokine secretion in culture supernatants, THP-1 cells were washed twice with PBS, resuspended at 3.4×10^5/ml and cultured in 96-well plates at 250 μL, per well at 37° C. […] Supernatants were collected at different time points as indicated in the figures and were kept at ≦−20° C. until analysis of cytokine production.
Total RNA was isolated using RNeasy mini kit from QIAGEN (Valencia, Calif.) according to the manufacturer's instructions. RNA samples were stored at −80° C.
Two to three micrograms of DNase-treated total RNA were reverse transcribed to cDNA using the Transcriptor First Strand cDNA Synthesis Kit (Roche Diagnostics Corporation, Indianapolis, Ind.) according to the instructions.
Real-time PCR was carried out with the LightCycler FastStart DNA Master^plus SYBR Green I kit (Roche Diagnostics) according to the manufacturer's instructions.
The PCR profile was as follows: (i) denaturation at 95° C. for 10 min. (ii) 45 cycles of 0 s at 95° C., 5 s at 54-58° C. (depending on Tm of the primers), 6-16 s (determined by the length of amplicon) at 72° C. (iii) melting curves for 0 s at 95° C., 15 s at 65° C. and 0 s at 95° C. (iv) cooling at 40° C. for 30 s. Transition rates were: 20° C./s for all steps except 0.1° C./s for 95° C. segment 3 of the melting curves.
For data analysis, the baseline adjustment was carried out in the “arithmetic” mode, and the fluorescence curve analysis was carried out in the “Second Derivative Maximum” mode of the LightCycler™ software (Version 3.5).
The primers used for real-time PCR were as follows (5′ to 3′): […]

[3] = test system: NF-κB-LH transfected HEK293 cells; assay: NF-κB reporter gene assay; format: cell-based; conditions: tipifarnib 2 or 5 μM for 18 hours, TNF-α 10 ng/ml for 4 hours
Procedure: HEK293 cells were transfected with the NF-κB-LH plasmid (Biomyx) using Lipofectamine 2000, and stable clones were selected by culture in hygromycin (176 μg/ml). The resulting NF-κB-LH-transfected cells were seeded in DMEM/10% FCS in 96-well plates for use in luciferase reporter assays. On the following day, cells were treated with tipifarnib for 18 hours, then stimulated with TNF-α (10 ng/ml) for 4 hours, after which NF-κB activity was measured using the Steady-Glo® luciferase reporter assay system (Promega). NF-κB activation was calculated as the fold-induction by TNF-α over unstimulated control samples.

[4] = cited from earlier work; remark: listed apart in the source
[5] = simvastatin 10 μM or tipifarnib 5 μM, 6 and 12 hours

Cn1cncc1C(N)(c1ccc(Cl)cc1)c1ccc2c(c1)c(-c1cccc(Cl)c1)cc(=O)n2C (single isomer, unassigned; (+)) [tipifarnib, (+)-6-[amino(4-chlorophenyl)(1-methyl-1H-imidazol-5-yl)methyl]-4-(3-chlorophenyl)-1-methyl-2(1H)-quinolinone]
LPS-induced IL-6 production (human PBMC; tipifarnib 2 μM, LPS 10 ng/ml, 10% FBS): no effect
IL-6 mean value lower than in absence of compound (human PBMC; tipifarnib 5 μM, 24 hours, not statistically significant (P=0.104)): approximately 40%
LPS-induced IL-6 production (human PBMC; tipifarnib 5 μM, after 16 and 40 hours): highly significant inhibition
plasma levels ([1]; at 300 mg twice a day (Karp, Lancet et al. 2001)): approximately 2 μM
maximum tolerated dose ([1]; in a number of studies (Head and Johnston 2003)): 300 mg twice a day
disease scores [2]: reduction of disease scores
cachexia (cachexia): inhibition
Induction of IL-8 by LPS (THP-1 cells; [5]): no significant effect
STAT1 induction by LPS (THP-1 cells; [5]): inhibited
Induction of IL-8 by LPS (THP-1 cells; simvastatin 10 μM or tipifarnib 5 μM, 3 hours): unaffected
peak of LPS-induced IL-6 transcription (THP-1 cells; simvastatin 10 μM or tipifarnib 5 μM, 6 hours): inhibition
LPS-induced IL-6 transcription (THP-1 cells; simvastatin 10 μM or tipifarnib 5 μM, 12 hours): inhibition
LPS-induced IL-1β transcription (THP-1 cells; simvastatin 10 μM or tipifarnib 5 μM, after 6 and 12 hours): significantly downregulated
LPS-induced MCP-1 transcription (THP-1 cells; simvastatin 10 μM or tipifarnib 5 μM, from 6 hours): inhibited significantly
LPS-induced IL-1β transcription (THP-1 cells; simvastatin 10 μM or tipifarnib 5 μM, up to 3 hours): unaffected
MyD88 induction by LPS (THP-1 cells; tipifarnib 5 μM, 6 and 12 hours): almost complete inhibition
MMP-9 induction by LPS (THP-1 cells; tipifarnib 5 μM, 12 hours): no induction
TNF-α induced NF-κB activity [3]: not inhibited
protein binding [4]: highly protein-bound
